US20150105252A1, “SUBSTITUTED PYRAZOLES AS HERBICIDES” (E I DU PONT DE NEMOURS AND COMPANY, priority 2013, published 2015)

How the values were obtained:
[1] = test system: ducksalad; test: Test B flood; format: in vivo, Heteranthera limosa; conditions: 250 g ai/ha, visual rating on 0 to 100 scale (0 no effect, 100 complete control), 13 to 15 days
Outline: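 At two leaves, seedlings received the test compound via the paddy water, pots having been flooded 3 cm over the soil surface and kept so. Greenhouse-held for 13 to 15 days, then judged by eye against controls on a scale running 0 (no effect) to 100 (complete control).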

[2] = test system: barnyardgrass; test: Test C flooded paddy test; format: in vivo, Echinochloa crus-galli; conditions: Flood
Outline: (§1)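 Ratings were visual and made relative to untreated controls after 13 to 15 greenhouse days.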

[3] = test system: ducksalad; test: Test C flooded paddy test; format: in vivo, Heteranthera limosa; conditions: Flood
Outline: as §1

[4] = test system: rice; test: Test C flooded paddy test; format: in vivo, Oryza sativa; conditions: Flood
Outline: as §1

[5] = test system: ryegrass, Italian; test: Test C postemergence; format: in vivo, Lolium multiflorum; conditions: postemergence
Outline: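 Pre- and postemergence greenhouse screen; vehicle was a non-phytotoxic solvent mix with surfactant. Preemergence: treatment applied right after sowing into loam and sand. Postemergence: treated at 1–4 leaves. Visual rating at 13–15 days, 100 = complete control.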

[6] = test system: sedge, umbrella; test: Test C flooded paddy test; format: in vivo, Cyperus difformis; conditions: Flood
Outline: as §1

[7] = test system: galium; test: Test D postemergence; format: in vivo, Galium aparine; conditions: scale 0 to 100; for Plant response rating, Galium: 16 g ai/ha
Outline: (§2)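 Postemergence activity was tested on plants at the 1- to 4-leaf stage (2–18 cm) grown in peat-based medium, and preemergence activity on seeds in silt loam, with chemicals in a surfactant-containing non-phytotoxic solvent. Controlled-environment growth lasted 14–21 days before visual 0–100 scoring.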

[8] = test system: oilseed rape; test: Test D preemergence; format: in vivo, Brassica napus; conditions: for Plant response rating (scale 0 to 100), Oilseed Rape: 16 g ai/ha, taken as preemergence; for Plant response rating, Oilseed Rape: Preemergence, scale 0 to 100
Outline: as §2

[9] = test system: speedwell; test: Test D preemergence; format: in vivo, Veronica persica; conditions: for Plant response rating (scale 0 to 100), Speedwell: 16 g ai/ha, taken as preemergence; for Plant response rating, Speedwell: Preemergence, scale 0 to 100
Source text: Seeds of plant species selected from bluegrass (annual bluegrass, Poa annua), blackgrass (Alopecurus myosuroides), canarygrass (littleseed canarygrass, Phalaris minor), chickweed (common chickweed, Stellaria media), galium (catchweed bedstraw, Galium aparine), bromegrass, downy (downy bromegrass, Bromus tectorum), field poppy (Papaver rhoeas), field violet (Viola arvensis), foxtail, green (green foxtail, Setaria viridis), deadnettle (henbit deadnettle, Lamium amplexicaule), ryegrass, Italian (Italian ryegrass, Lolium multiflorum), kochia (Kochia scoparia), lambsquarters (Chenopodium album), oilseed rape (Brassica napus), pigweed (redroot pigweed, Amaranthus retroflexus), chamomile (scentless chamomile, Matricaria inodora), speedwell (bird's-eye speedwell, Veronica persica), barley, spring (spring barley, Hordeum vulgare), wheat, spring (spring wheat, Triticum aestivum), buckwheat, wild (wild buckwheat, Polygonum convolvulus), mustard, wild (wild mustard, Sinapis arvensis), oat, wild (wild oat, Avena fatua), radish, wild (wild radish, Raphanus raphanistrum), windgrass (Apera spica-venti), Russian thistle (Salsola kali), barley, winter (winter barley, Hordeum vulgare), and wheat, winter (winter wheat, Triticum aestivum) were planted into a silt loam soil and treated preemergence with test chemicals formulated in a non-phytotoxic solvent mixture which included a surfactant.
At the same time, these species were planted in pots containing Redi-Earth® planting medium (Scotts Company, 14111 Scottslawn Road, Marysville, Ohio 43041) comprising spaghnum peat moss, vermiculite, wetting agent and starter nutrients and treated with postemergence applications of the test chemicals formulated in the same manner. Plants ranged in height from 2 to 18 cm (1- to 4-leaf stage). Treated plants and controls were maintained in a controlled growth environment for 14 to 21 days after which time all species were compared to controls and visually evaluated. Plant response ratings, summarized in Table D, are based on a scale of 0 to 100 where 0 is no effect and 100 is complete control. A dash (-) response means no test result.

[10] = 31 g ai/ha, scale 0 to 100 (0 no effect, 100 complete control)
[11] = 62 g ai/ha, scale 0 to 100 (0 no effect, 100 complete control)

Structure (SMILES)	Plant response rating, Ducksalad [1]	Plant response rating, Barnyardgrass [2, 10]	Plant response rating, Barnyardgrass [2, 11]	Plant response rating, Barnyardgrass ([2]; 125 g ai/ha, scale 0 to 100)	Plant response rating, Barnyardgrass ([2]; 250 g ai/ha, scale 0 to 100)	Plant response rating, Ducksalad [3, 10]	Plant response rating, Ducksalad [3, 11]	Plant response rating, Ducksalad ([3]; 125 g ai/ha, scale 0 to 100)	Plant response rating, Ducksalad ([3]; 250 g ai/ha, scale 0 to 100)	Plant response rating, Rice [4, 10]	Plant response rating, Rice [4, 11]	Plant response rating, Rice ([4]; 125 g ai/ha, scale 0 to 100)	Plant response rating, Rice ([4]; 250 g ai/ha, scale 0 to 100)	Plant response rating, Sedge, Umbrella [6, 10]	Plant response rating, Sedge, Umbrella [6, 11]	Plant response rating, Sedge, Umbrella ([6]; 125 g ai/ha, scale 0 to 100)	Plant response rating, Sedge, Umbrella ([6]; 250 g ai/ha, scale 0 to 100)	Plant response rating, Galium ([7]; Postemergence)	Galium plant response rating ([7]; Postemergence, 31 g ai/ha)	Galium plant response rating ([7]; Postemergence, 125 g ai/ha)	further results
Cc1cc(C(=O)NCC(F)(F)F)nn1Cc1ccnc(C(F)(F)F)c1 [Compound 74]	75	0	15	15	15	0	0	0	90	0	15	15	15	0	0	0	90	10	20	70	Ryegrass, Italian plant response rating ([5]; 62 g ai/ha, scale 0 to 100): 0; Plant response rating, Ryegrass, Italian ([5]; 250 g ai/ha, scale 0 to 100 (0 no effect, 100 complete control)): 0; Plant response rating, Ryegrass, Italian ([5]; 125 g ai/ha, scale 0 to 100, 0 no effect, 100 complete control): 0; Galium plant response rating ([7]; postemergence, 62 g ai/ha): 40; Plant response rating (scale 0 to 100), Oilseed Rape [8]: 5; Plant response rating, Oilseed Rape ([8]; 31 g ai/ha): 15; Plant response rating, Oilseed Rape ([8]; 62 g ai/ha): 40; Plant response rating, Oilseed Rape ([8]; 125 g ai/ha): 45; Plant response rating (scale 0 to 100), Speedwell [9]: 100; Plant response rating, Speedwell ([9]; 31 g ai/ha): 100; Plant response rating, Speedwell ([9]; 62 g ai/ha): 100; Plant response rating, Speedwell ([9]; 125 g ai/ha): 100
O=C(NC1CC1)c1cc(CCF)n(Cc2ccnc(C(F)(F)F)c2)n1 [Compound 176]	100	0	0	20	10	0	70	95	100	0	0	20	20	0	40	95	100	55	65	65	Galium plant response rating ([7]; postemergence, 62 g ai/ha): 65; Plant response rating (scale 0 to 100), Oilseed Rape [8]: 0; Plant response rating, Oilseed Rape ([8]; 62 g ai/ha): 35; Plant response rating, Oilseed Rape ([8]; 125 g ai/ha): 65; Plant response rating (scale 0 to 100), Speedwell [9]: 15; Plant response rating, Speedwell ([9]; 62 g ai/ha): 100; Plant response rating, Speedwell ([9]; 125 g ai/ha): 100
